Data taken from PMC10818589 (2024).

Tested on: d(5′-CGCGAATTCGCG-3′)2 (DNA, duplex) CGCGAATTCGCG
Experiment: ethidium bromide displacement, fluorescence quenching, double-log plot
Settings: phosphate buffer 100 mM (cation not given); pH 7.0, 298 K; 20 μM duplex saturated with EtBr (5.07 μM), displaced; compound slowly decomposes in water; apparent

Kb: 3.162 × 10^5 ± 0.001 M^-1
SMILES: [Ru+2].[Ru+2].[Ru+2].[Ru+2].[Ru+2].[Ru+2].[Ru+2].[Ru+2].[Ru+2].[Ru+2].[Ru+2].[Ru+2].c1cc2ccc1-c1ccc(cc1)-c1ccc(cc1)-c1ccc(cc1)-c1ccc(cc1)-c1ccc(cc1)-c1ccc(cc1)-c1ccc(cc1)-c1ccc(cc1)-c1ccc(cc1)-c1ccc(cc1)-c1ccc-2cc1.c1cc[cH-]c1.c1cc[cH-]c1.c1cc[cH-]c1.c1cc[cH-]c1.c1cc[cH-]c1.c1cc[cH-]c1.c1cc[cH-]c1.c1cc[cH-]c1.c1cc[cH-]c1.c1cc[cH-]c1.c1cc[cH-]c1.c1cc[cH-]c1
